Some test systems named below: BT-549 breast; CAKI-1 renal; DU-145 prostate; HCT-116 colon; HS 578T breast; MDA-MB-231 breast; NCI-H23 lung; OVCAR-3 ovarian; SF-295 CNS; SK-MEL-28 melanoma.
What all share (experiment): growth of human tumour cells (NCI), 48 h

The results in this text go back to PubChem BioAssay (NCI).

≈ marks a conversion by molar mass, not a printed value.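 Growth conditions: 96-well plates. Treatment: test compound, 48 hours, 5 concentrations. Analysis: linear interpolation between bracketing concentrations; unreached endpoints set to highest concentration. GI50 = concentration required for 50% inhibition of growth. TGI: concentration producing complete growth inhibition.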 Where only a bound is given, the exact number is not on record here.

Take `O=c1oc2ccccc2c(O)c1Cc1ccc(Cc2c(O)c3ccccc3oc2=O)cc1`: the TGI in the experiment on BT-549 breast, with CAKI-1 renal, with DU-145 prostate, in the experiment with HCT-116 colon, with HS 578T breast and in the experiment with MDA-MB-231 breast was over 100 µM each time. Further, the TGI with NCI-H23 lung, with OVCAR-3 ovarian, in the experiment on SF-295 CNS and in the experiment on SK-MEL-28 melanoma was over 100 µM in each case.
Turning to `O=C1NN(C2=NNC3(C(=O)N2)c2ccccc2-c2ccccc23)C(c2ccccc2)=N/C1=C/c1ccc(Cl)cc1`, the GI50 was 150 µg/mL (≈ 275 µM) in the experiment on BT-549 breast; 74.4 µg/mL (≈ 136 µM) in the experiment on CAKI-1 renal; 89.1 µg/mL (≈ 164 µM) in the experiment on DU-145 prostate; 51.2 µg/mL (≈ 94 µM) with HCT-116 colon; 47.7 µg/mL (≈ 87.6 µM) with HS 578T breast; 47.9 µg/mL (≈ 87.8 µM) in the experiment with MDA-MB-231 breast. The GI50 is 34.9 µg/mL (≈ 64.1 µM) with NCI-H23 lung, 29.5 µg/mL (≈ 54.2 µM) in the experiment on OVCAR-3 ovarian, 30.7 µg/mL (≈ 56.3 µM) with SF-295 CNS and 63 µg/mL (≈ 116 µM) in the experiment on SK-MEL-28 melanoma. Also, the TGI in the experiment with BT-549 breast, in the experiment with CAKI-1 renal, with DU-145 prostate, with HCT-116 colon, in the experiment with HS 578T breast and with MDA-MB-231 breast was over 150 µg/mL throughout. Further, the TGI in the experiment on NCI-H23 lung was over 150 µg/mL; in the experiment with OVCAR-3 ovarian, 69.3 µg/mL; in the experiment on SF-295 CNS it was 73.9 µg/mL; in the experiment on SK-MEL-28 melanoma, over 150 µg/mL.
For the compound `COC(=O)C(Cc1cn(C(C)n2cc(CC(NC(C)=O)C(=O)OC)c3ccccc32)c2ccccc12)NC(C)=O` (stereo not given), the TGI with BT-549 breast, with CAKI-1 renal, in the experiment on DU-145 prostate, in the experiment on HCT-116 colon, in the experiment on HS 578T breast and with MDA-MB-231 breast was over 100 µM throughout. Further, the TGI with NCI-H23 lung, with OVCAR-3 ovarian, in the experiment with SF-295 CNS and with SK-MEL-28 melanoma was over 100 µM throughout.
